Test results as given in patent US20170037028A1 (BAYER PHARMA AKTIENGESELLSCHAFT, priority 2013, published 2017).

Target: T1, GLUT1 (Homo sapiens, UniProt P11166)
T1 sequence (P11166 1-492): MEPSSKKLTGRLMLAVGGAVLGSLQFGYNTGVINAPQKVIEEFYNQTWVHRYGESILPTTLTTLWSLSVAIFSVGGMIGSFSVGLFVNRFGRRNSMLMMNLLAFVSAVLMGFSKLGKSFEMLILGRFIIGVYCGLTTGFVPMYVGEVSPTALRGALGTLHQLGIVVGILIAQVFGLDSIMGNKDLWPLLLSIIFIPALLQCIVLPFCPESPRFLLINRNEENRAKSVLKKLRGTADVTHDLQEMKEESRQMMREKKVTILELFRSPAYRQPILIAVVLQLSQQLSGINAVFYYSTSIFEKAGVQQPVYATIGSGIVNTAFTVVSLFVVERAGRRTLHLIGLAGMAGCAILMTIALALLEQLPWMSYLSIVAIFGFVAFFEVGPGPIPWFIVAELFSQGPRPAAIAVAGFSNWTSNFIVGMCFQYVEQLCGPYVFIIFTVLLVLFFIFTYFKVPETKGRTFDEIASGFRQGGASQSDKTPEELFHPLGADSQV
Experiment: Indirect measurement of GLUT1 activity by quantification of intracellular ATP levels (glucose induced ATP increase)
Type: cell-based
Set-up: endogenous in cells; host or cells: DLD1 or CHO-K1
Details: read-out: IC50 regarding glucose induced ATP increase (GLUT1 inhibition)
Description: Indirect Measurement of GLUT1 and GLUT2 Activity by Quantification of Intracellular ATP Levels
It is well known that a combination of small-molecule inhibitors of mitochondrial electron transport chain and glucose catabolism synergistically suppress ATP production and impair cellular viability (Ulanovskaya et al., 2008, 2011; Liu, et al. 2001). We therefore used DLD1 or CHO-K1 cells in combination with an oxidative phosphorylation inhibitor to identify GLUT1 and GLUT2 inhibitors. Cell lines were maintained in DMEM medium supplemented with 10% FCS and 1% Penicillin-Streptomycin solution and 2% Glutamax. The cells were treated with trypsin and seeded into 384 plates at a density of 4000 cells/well. The cells were then cultured overnight in glucose free media containing 1% FCS to reduce intracellular ATP levels. […] The CellTiter-Glo® Luminescent Cell Viability Assay from Promega was then used to measure ATP Levels.

| IC50 | Compound |
| --- | --- |
| 0.0252 µM | Cc1nn(Cc2ccc(F)cc2)c(C)c1NC(=O)c1cc(C(F)(F)F)nc2cccc(Br)c12 [Example 34, 5-bromo-N-[1-(4-fluorobenzyl)-3,5-dimethyl-1H-pyrazol-4-yl]-2-(trifluoromethyl)quinoline-4-carboxamide] |
| 0.0256 µM | Cc1nn(Cc2ccc(F)c(F)c2)c(C)c1NC(=O)c1cc(C(F)(F)F)nc2c(Cl)cc(Cl)cc12 [Example 35, 6,8-dichloro-N-[1-(3,4-difluorobenzyl)-3,5-dimethyl-1H-pyrazol-4-yl]-2-(trifluoromethyl)quinoline-4-carboxamide] |
| 0.0889 µM | Cc1nn(Cc2ccc(F)cc2)c(C)c1NC(=O)c1cc(Br)nc2ccccc12 [Example 36, 2-bromo-N-[1-(4-fluorobenzyl)-3,5-dimethyl-1H-pyrazol-4-yl]quinoline-4-carboxamide] |
| 0.0267 µM | Cc1nn(Cc2ccc(F)cc2)c(C)c1NC(=O)c1c2c(nc3ccc(Br)cc13)CCCC2 [Example 37, 7-bromo-N-[1-(4-fluorobenzyl)-3,5-dimethyl-1H-pyrazol-4-yl]-1,2,3,4-tetrahydroacridine-9-carboxamide] |
| 0.0295 µM | Cc1c(NC(=O)c2cc(C(F)(F)F)nc3c(Cl)cc(Cl)cc23)c(C(F)(F)F)nn1Cc1ccc(F)cc1 [Example 38, 6,8-dichloro-N-[1-(4-fluorobenzyl)-5-methyl-3-(trifluoromethyl)-1H-pyrazol-4-yl]-2-(trifluoromethyl)quinoline-4-carboxamide] |
| 0.0321 µM | Cc1ccc2nc(C)cc(C(=O)Nc3c(C)nn(Cc4ccc(C#N)cc4)c3C)c2c1 [Example 44, N-[1-(4-cyanobenzyl)-3,5-dimethyl-1H-pyrazol-4-yl]-2,6-dimethylquinoline-4-carboxamide] |
| 0.04 µM | Cc1nn(Cc2ccc(F)cc2)c(C)c1NC(=O)c1cc(C2CC2)nc2cccc(F)c12 [Example 46, 2-cyclopropyl-5-fluoro-N-[1-(4-fluorobenzyl)-3,5-dimethyl-1H-pyrazol-4-yl]quinoline-4-carboxamide] |
| 0.0444 µM | Cc1nn(Cc2ccc(F)c(F)c2)c(C)c1NC(=O)c1cc(C(F)(F)F)nc2ccc(Br)cc12 [Example 47, 6-bromo-N-[1-(3,4-difluorobenzyl)-3,5-dimethyl-1H-pyrazol-4-yl]-2-(trifluoromethyl)quinoline-4-carboxamide] |
| 0.0444 µM | Cc1nn(Cc2ccc(F)cc2F)c(C)c1NC(=O)c1cc(C(F)(F)F)nc2c(Cl)cc(Cl)cc12 [Example 48, 6,8-dichloro-N-[1-(2,4-difluorobenzyl)-3,5-dimethyl-1H-pyrazol-4-yl]-2-(trifluoromethyl)quinoline-4-carboxamide] |
| 0.0524 µM | Cc1cc(C(=O)Nc2c(C)nn(Cc3ccc(F)cc3)c2C)c2cccc(Br)c2n1 [Example 53, 8-bromo-N-[1-(4-fluorobenzyl)-3,5-dimethyl-1H-pyrazol-4-yl]-2-methylquinoline-4-carboxamide] |
| 0.0593 µM | COc1cc(C(=O)Nc2c(C)nn(Cc3ccc(F)c(F)c3)c2C)c2ccccc2n1 [Example 55, N-[1-(3,4-difluorobenzyl)-3,5-dimethyl-1H-pyrazol-4-yl]-2-methoxyquinoline-4-carboxamide] |
| 0.0667 µM | Cc1nn(Cc2c(F)cc(F)cc2F)c(C)c1NC(=O)c1cc(C(F)(F)F)nc2c(Cl)cc(Cl)cc12 [Example 57, 6,8-dichloro-N-[3,5-dimethyl-1-(2,4,6-trifluorobenzyl)-1H-pyrazol-4-yl]-2-(trifluoromethyl)quinoline-4-carboxamide] |
| 0.0771 µM | Cc1ccc2nc(C)cc(C(=O)Nc3c(C)nn(Cc4ccc(OC(F)(F)F)cc4)c3C)c2c1 [Example 58, N-{3,5-dimethyl-1-[4-(trifluoromethoxy)benzyl]-1H-pyrazol-4-yl}-2,6-dimethylquinoline-4-carboxamide] |
| 0.0926 µM | Cc1nn(Cc2ccccc2)c(C)c1NC(=O)c1cc(C(F)(F)F)nc2c(Cl)cc(Cl)cc12 [Example 59, N-(1-benzyl-3,5-dimethyl-1H-pyrazol-4-yl)-6,8-dichloro-2-(trifluoromethyl)quinoline-4-carboxamide] |
| 0.11 µM | COc1cc(C(=O)Nc2c(C)nn(Cc3ccc(C)cc3)c2C)c2ccccc2n1 [Example 61, N-[3,5-dimethyl-1-(4-methylbenzyl)-1H-pyrazol-4-yl]-2-methoxyquinoline-4-carboxamide] |
| 0.129 µM | Cc1nn(Cc2ccc(F)cc2)c(C)c1NC(=O)c1cc(C(F)(F)F)nc2ccc(OC(F)(F)F)cc12 [Example 63, N-[1-(4-fluorobenzyl)-3,5-dimethyl-1H-pyrazol-4-yl]-6-(trifluoromethoxy)-2-(trifluoromethyl)quinoline-4-carboxamide] |
| 0.13 µM | Cc1ccc2nc(C)cc(C(=O)Nc3c(C)nn(Cc4ccc(F)c(F)c4)c3C)c2c1 [Example 64, N-[1-(3,4-difluorobenzyl)-3,5-dimethyl-1H-pyrazol-4-yl]-2,6-dimethylquinoline-4-carboxamide] |

Continued, compound first:

| Compound | IC50 |
| --- | --- |
| Cc1nn(Cc2ccc(F)cc2)c(C)c1NC(=O)c1cc(C(F)(F)F)nc2cc(F)c(F)cc12 [Example 39, 6,7-difluoro-N-[1-(4-fluorobenzyl)-3,5-dimethyl-1H-pyrazol-4-yl]-2-(trifluoromethyl)quinoline-4-carboxamide] | 0.03 µM |
| Cc1nn(Cc2ccc(F)cc2)c(C)c1NC(=O)c1cc(C2CC2)nc2c(F)cccc12 [Example 40, 2-cyclopropyl-8-fluoro-N-[1-(4-fluorobenzyl)-3,5-dimethyl-1H-pyrazol-4-yl]quinoline-4-carboxamide] | 0.03 µM |
| Cc1nn(Cc2ccc(F)cc2F)c(C)c1NC(=O)c1cc(C(F)(F)F)nc2ccc(Br)cc12 [Example 41, 6-bromo-N-[1-(2,4-difluorobenzyl)-3,5-dimethyl-1H-pyrazol-4-yl]-2-(trifluoromethyl)quinoline-4-carboxamide] | 0.03 µM |
| COc1cc(C(=O)Nc2c(C)nn(Cc3c(F)cccc3F)c2C)c2ccccc2n1 [Example 42, N-[1-(2,6-difluorobenzyl)-3,5-dimethyl-1H-pyrazol-4-yl]-2-methoxyquinoline-4-carboxamide] | 0.0309 µM |
| Cc1cc(C(=O)Nc2c(C)nn(Cc3ccc(F)cc3)c2C)c2cc(Br)ccc2n1 [Example 43, 6-bromo-N-[1-(4-fluorobenzyl)-3,5-dimethyl-1H-pyrazol-4-yl]-2-methylquinoline-4-carboxamide] | 0.0317 µM |
| Cc1ccc(Cn2nc(C)c(NC(=O)c3cc(C)nc4ccc(C)cc34)c2C)cc1 [Example 45, N-[3,5-dimethyl-1-(4-methylbenzyl)-1H-pyrazol-4-yl]-2,6-dimethylquinoline-4-carboxamide] | 0.0354 µM |
| Cc1nn(Cc2c(F)cc(F)cc2F)c(C)c1NC(=O)c1cc(C(F)(F)F)nc2ccc(Br)cc12 [Example 49, 6-bromo-N-[3,5-dimethyl-1-(2,4,6-trifluorobenzyl)-1H-pyrazol-4-yl]-2-(trifluoromethyl)quinoline-4-carboxamide] | 0.05 µM |
| COc1cc(C(=O)Nc2c(C)nn(Cc3c(F)cc(F)cc3F)c2C)c2ccccc2n1 [Example 50, N-[3,5-dimethyl-1-(2,4,6-trifluorobenzyl)-1H-pyrazol-4-yl]-2-methoxyquinoline-4-carboxamide] | 0.05 µM |
| COc1cc(C(=O)Nc2c(C)nn(Cc3ccccc3C)c2C)c2ccccc2n1 [Example 51, N-[3,5-dimethyl-1-(2-methylbenzyl)-1H-pyrazol-4-yl]-2-methoxyquinoline-4-carboxamide] | 0.05 µM |
| Cc1cccc(Cn2nc(C)c(NC(=O)c3cc(C(F)(F)F)nc4ccc(Br)cc34)c2C)c1 [Example 52, 6-bromo-N-[3,5-dimethyl-1-(3-methylbenzyl)-1H-pyrazol-4-yl]-2-(trifluoromethyl)quinoline-4-carboxamide] | 0.0521 µM |
| Cc1ccc(Cn2nc(C)c(NC(=O)c3cc(C(F)(F)F)nc4ccc(Br)cc34)c2C)cc1 [Example 54, 6-bromo-N-[3,5-dimethyl-1-(4-methylbenzyl)-1H-pyrazol-4-yl]-2-(trifluoromethyl)quinoline-4-carboxamide] | 0.0583 µM |
| Cc1nn(Cc2ccc(OC(F)(F)F)cc2)c(C)c1NC(=O)c1cc(C(F)(F)F)nc2ccc(Br)cc12 [Example 56, 6-bromo-N-{3,5-dimethyl-1-[4-(trifluoromethoxy)benzyl]-1H-pyrazol-4-yl}-2-(trifluoromethyl)quinoline-4-carboxamide] | 0.0604 µM |
| Cc1nn(Cc2ccc(OC(F)(F)F)cc2)c(C)c1NC(=O)c1cc(C(F)(F)F)nc2c(Cl)cc(Cl)cc12 [Example 60, 6,8-dichloro-N-{3,5-dimethyl-1-[4-(trifluoromethoxy)benzyl]-1H-pyrazol-4-yl}-2-(trifluoromethyl)quinoline-4-carboxamide] | 0.0979 µM |
| Cc1ccc2nc(C)cc(C(=O)Nc3c(C)nn(Cc4ccc(F)cc4)c3C)c2c1 [Example 62, N-[1-(4-fluorobenzyl)-3,5-dimethyl-1H-pyrazol-4-yl]-2,6-dimethylquinoline-4-carboxamide] | 0.127 µM |
